Assay results from publication PMC6801902, “Directed Evolution of Clostridium thermocellum β-Glucosidase A Towards Enhanced Thermostability” (International Journal of Molecular Sciences, 2019).

Assays:
[1] = target: C. thermocellum BglA (β-glucosidase A, Clo1313_2020) (Acetivibrio thermocellus, UniProt P26208, A17S/K268N, form not given); test: continuous p-nitrophenol release at OD405, nonlinear fit (GraphPad Prism); type: biochemical; conditions: 50 mM citrate buffer pH 6.1, 60 °C, 0-25 mM pNPG, 13 nM enzyme; thermostable mutant Mut 1
Text: (§1) continuous p-nitrophenol release at OD405, nonlinear fit (GraphPad Prism) on C. thermocellum BglA (β-glucosidase A, Clo1313_2020)

[2] = target: C. thermocellum BglA (β-glucosidase A, Clo1313_2020) (Acetivibrio thermocellus, UniProt P26208); test: as above; type: biochemical; conditions: 50 mM citrate buffer pH 6.1, 60 °C, 0-25 mM pNPG, 13 nM enzyme; read-out: Wild Type
Text: as §1

Chain of C. thermocellum BglA (β-glucosidase A, Clo1313_2020) (Acetivibrio thermocellus, UniProt P26208) (P26208 whole entry): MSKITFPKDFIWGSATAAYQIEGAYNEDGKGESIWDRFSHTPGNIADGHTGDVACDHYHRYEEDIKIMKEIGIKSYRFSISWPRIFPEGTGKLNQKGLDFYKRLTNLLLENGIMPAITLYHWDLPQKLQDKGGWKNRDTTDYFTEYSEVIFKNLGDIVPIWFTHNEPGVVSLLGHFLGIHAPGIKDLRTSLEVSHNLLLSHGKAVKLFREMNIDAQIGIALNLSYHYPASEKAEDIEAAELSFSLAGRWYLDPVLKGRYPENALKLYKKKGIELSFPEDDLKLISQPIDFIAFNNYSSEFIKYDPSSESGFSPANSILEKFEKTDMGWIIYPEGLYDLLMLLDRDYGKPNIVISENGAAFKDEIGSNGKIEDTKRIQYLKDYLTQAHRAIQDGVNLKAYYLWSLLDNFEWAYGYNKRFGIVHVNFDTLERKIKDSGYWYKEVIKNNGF
Chain of C. thermocellum BglA (β-glucosidase A, Clo1313_2020) (Acetivibrio thermocellus, UniProt P26208, A17S/K268N, form not given) (P26208 whole entry A17S/K268N, form open): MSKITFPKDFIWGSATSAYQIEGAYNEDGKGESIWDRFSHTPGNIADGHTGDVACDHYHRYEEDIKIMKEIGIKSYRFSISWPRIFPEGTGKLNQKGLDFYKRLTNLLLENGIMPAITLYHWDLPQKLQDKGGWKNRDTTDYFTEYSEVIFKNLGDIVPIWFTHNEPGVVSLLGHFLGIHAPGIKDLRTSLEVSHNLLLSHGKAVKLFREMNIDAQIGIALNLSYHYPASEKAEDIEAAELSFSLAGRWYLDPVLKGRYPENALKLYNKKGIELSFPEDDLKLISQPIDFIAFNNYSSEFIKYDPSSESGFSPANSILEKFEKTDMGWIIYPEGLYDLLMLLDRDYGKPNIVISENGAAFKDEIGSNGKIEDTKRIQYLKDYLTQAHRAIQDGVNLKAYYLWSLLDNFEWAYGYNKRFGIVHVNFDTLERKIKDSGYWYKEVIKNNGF

Work on O=[N+]([O-])c1ccc(O[C@@H]2O[C@H](CO)[C@@H](O)[C@H](O)[C@H]2O)cc1 [pNPG, p-nitrophenyl-β-D-glucopyranoside] yielded a Km [1] of 5 ± 0.59 mM and a Km [2] of 6.7 ± 1.11 mM.
